Earlier results, collected in US20100316580A1, “ORAL CARE PRODUCT AND METHODS OF USE THEREOF” (Colgate-Palmolive Company, priority 2008, published 2010).

solubility in water: only slightly soluble
Structure (SMILES): Oc1cc(Cl)ccc1Oc1ccc(Cl)cc1Cl [triclosan, 5-chloro-2-(2,4-dichlorophenoxyphenol]
